Legend:
Ba/F3 KIF5B-RET cells = molecular target: T1, Ba/F3 KIF5B-RET cells (Homo sapiens, UniProt P07949); assay: Inhibition of proliferation of Ba/F3 KIF5B-RET cells (CellTiter-Glo); assay type: cell-based; settings: 72 to 144 hours
T1 construct: fused on or other part: P33176 (Kinesin-1 heavy chain)
Outline: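 Cells plated overnight, then exposed to compound dilutions in DMSO/medium at 37° C, 5% CO2 for 72 to 144 hours. Viability read by CellTiter-Glo luminescence; IC50 from inhibition rates fitted by nonlinear regression.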

KDR kinase = molecular target: T2, KDR kinase (Homo sapiens, UniProt P35968); assay: HTRF kinase activity inhibition, KDR; assay type: biochemical; settings: for IC50: HTRF, ATP at Km; for Ratio (KDR/RET): KDR IC50 / RET IC50
T2 construct: purchased Carna 08-191
T2 sequence (P35968 20-1356): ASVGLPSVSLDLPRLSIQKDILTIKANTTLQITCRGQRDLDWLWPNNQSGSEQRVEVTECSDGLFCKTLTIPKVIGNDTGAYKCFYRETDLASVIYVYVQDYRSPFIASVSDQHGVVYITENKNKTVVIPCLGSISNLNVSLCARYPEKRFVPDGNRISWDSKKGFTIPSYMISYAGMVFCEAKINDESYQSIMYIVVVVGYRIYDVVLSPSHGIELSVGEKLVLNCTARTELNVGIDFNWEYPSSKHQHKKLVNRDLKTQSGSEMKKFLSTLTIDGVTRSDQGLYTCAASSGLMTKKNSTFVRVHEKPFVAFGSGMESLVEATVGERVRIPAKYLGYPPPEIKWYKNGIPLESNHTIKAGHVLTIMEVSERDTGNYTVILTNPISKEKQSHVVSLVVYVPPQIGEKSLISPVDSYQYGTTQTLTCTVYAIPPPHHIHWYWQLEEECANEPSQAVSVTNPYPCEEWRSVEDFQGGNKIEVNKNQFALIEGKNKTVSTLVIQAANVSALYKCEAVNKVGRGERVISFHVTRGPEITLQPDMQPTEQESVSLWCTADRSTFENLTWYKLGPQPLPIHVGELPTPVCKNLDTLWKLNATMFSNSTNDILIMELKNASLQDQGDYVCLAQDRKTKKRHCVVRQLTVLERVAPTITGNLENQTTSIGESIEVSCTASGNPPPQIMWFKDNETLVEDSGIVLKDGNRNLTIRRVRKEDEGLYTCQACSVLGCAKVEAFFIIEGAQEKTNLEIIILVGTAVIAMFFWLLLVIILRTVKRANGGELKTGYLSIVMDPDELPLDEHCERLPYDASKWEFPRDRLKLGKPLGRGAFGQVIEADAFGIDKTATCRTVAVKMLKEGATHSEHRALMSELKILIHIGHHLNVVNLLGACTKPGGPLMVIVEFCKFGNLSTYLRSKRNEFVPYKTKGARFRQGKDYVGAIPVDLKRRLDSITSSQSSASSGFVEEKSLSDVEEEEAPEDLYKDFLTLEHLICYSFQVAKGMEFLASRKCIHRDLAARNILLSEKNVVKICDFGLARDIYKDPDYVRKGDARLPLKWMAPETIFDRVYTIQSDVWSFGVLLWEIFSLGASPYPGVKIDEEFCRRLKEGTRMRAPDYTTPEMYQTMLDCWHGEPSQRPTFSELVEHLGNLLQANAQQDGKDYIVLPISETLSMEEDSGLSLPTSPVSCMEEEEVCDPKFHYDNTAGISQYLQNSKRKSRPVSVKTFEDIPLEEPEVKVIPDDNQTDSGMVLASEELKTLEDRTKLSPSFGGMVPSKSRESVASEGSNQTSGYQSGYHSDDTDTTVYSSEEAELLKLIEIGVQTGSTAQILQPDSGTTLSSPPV
Outline: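 Inhibition of KDR kinase activity measured by homogeneous time-resolved fluorescence with a tyrosine-kinase KinEASE substrate kit and ATP.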

[1] = tested on: subcutaneous transplanted tumor of Ba/F3 KIF5B-RET cells; assay: Tumor suppression on Ba/F3 KIF5B-RET transplanted tumor model; assay type: in vivo, BALB/c nude mice
Method: Ba/F3 KIF5B-RET cells were removed from the cell bank, resuscitated and added to RPMI1640 medium (RPMI1640+10% FBS+1% Glu+1% P/S), then cultured in a CO2 incubator (incubator temperature was 37° C., CO2 concentration was 5%), and when the cell number expanded to the required number for in vivo inoculation, Ba/F3 KIF5B-RET cells were collected. The cells were counted with an automatic cell counter, resuspended with PBS according to the count results, made into a cell suspension (density was 2×10^7/mL), and placed in an ice box for use.
Female BALB/c nude mice aged 6-8 weeks were used, weighing about 18-22 g. Mice were reared in SPF animal room, and were reared in a single cage with 5 mice in each cage. All cages, bedding and water were sterilized at high temperature before use, and all animals were allowed to eat and drink freely. Nude mice were labeled with disposable universal ear tags for mice and rats before the start of the experiment, and the skin of the inoculation site was disinfected with 75% medical alcohol before inoculation. 0.1 mL (containing 2*10^6 cells) of Ba/F3 KIF5B-RET cells were inoculated subcutaneously on the right back of each mouse. Group administration was initiated when the tumor volume reached 60-200 mm^3, with 5 mice in each group. Each test compound was administered orally twice a day for 14 days. The tumor volume and the weight of mice were measured twice a week, and the tumor TGI (%) was calculated.
The tumor volume (mm^3) was calculated as V=0.5*D*d*d, where D and d were the long and short diameters of the tumor, respectively.
When there was no tumor regression, TGI (%)=[(1-(mean tumor volume at the end of the administration in a treatment group−mean tumor volume at the start of administration in the treatment group))/(mean tumor volume at the end of treatment in the solvent control group−mean tumor volume at the start of treatment in the solvent control group)]×100%.
When there was tumor regression, TGI (%)=[1-(mean tumor volume at the end of administration in a treatment group−mean tumor volume at the beginning of administration in the treatment group)/mean tumor volume at the beginning of administration in the treatment group]×100%.

[2] = tested on: TT cells (MTC, RET C634W); assay: Inhibition of proliferation of TT cells (CellTiter-Glo, 72 h); assay type: cell-based; settings: Homo sapiens
Outline: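 TT cells seeded overnight, then exposed to compound dilutions for 72 h at 37 °C, 5% CO2, with a solvent control. Viability read by CellTiter-Glo luminescence; IC50 from nonlinear regression of inhibition rate versus concentration.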

T1 sequence (P07949 whole entry, change not shown, the tested form may be a part): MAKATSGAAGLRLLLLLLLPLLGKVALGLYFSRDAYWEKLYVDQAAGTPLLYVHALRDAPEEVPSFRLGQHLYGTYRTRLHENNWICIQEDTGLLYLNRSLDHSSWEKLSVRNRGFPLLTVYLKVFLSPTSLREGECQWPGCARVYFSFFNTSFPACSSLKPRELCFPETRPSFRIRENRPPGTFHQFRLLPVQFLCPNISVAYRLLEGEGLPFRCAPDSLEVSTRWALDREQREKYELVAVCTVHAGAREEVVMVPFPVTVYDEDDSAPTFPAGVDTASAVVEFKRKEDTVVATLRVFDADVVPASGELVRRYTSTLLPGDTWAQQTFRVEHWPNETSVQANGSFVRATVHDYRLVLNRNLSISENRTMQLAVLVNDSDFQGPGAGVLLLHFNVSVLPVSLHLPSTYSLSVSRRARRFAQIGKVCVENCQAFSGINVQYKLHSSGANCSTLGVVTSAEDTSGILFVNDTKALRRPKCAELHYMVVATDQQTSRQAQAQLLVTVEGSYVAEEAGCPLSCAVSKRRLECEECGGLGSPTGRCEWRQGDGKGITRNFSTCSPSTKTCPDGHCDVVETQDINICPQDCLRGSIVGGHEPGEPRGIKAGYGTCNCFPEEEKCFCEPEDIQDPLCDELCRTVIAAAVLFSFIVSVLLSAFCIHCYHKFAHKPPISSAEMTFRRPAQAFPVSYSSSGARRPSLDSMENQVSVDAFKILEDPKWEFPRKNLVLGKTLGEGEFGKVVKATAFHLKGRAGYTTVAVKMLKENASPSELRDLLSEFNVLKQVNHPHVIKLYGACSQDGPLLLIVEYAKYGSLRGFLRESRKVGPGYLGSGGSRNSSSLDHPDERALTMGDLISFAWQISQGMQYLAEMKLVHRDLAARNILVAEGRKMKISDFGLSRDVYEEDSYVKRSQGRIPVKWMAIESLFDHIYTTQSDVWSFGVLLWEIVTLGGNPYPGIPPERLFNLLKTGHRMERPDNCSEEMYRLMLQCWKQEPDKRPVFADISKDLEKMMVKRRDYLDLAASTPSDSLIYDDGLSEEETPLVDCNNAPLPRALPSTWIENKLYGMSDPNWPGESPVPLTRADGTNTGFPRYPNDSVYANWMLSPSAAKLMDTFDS

SMILES	IC50 (Ba/F3 KIF5B-RET cells) [nM]	IC50 (KDR kinase) [nM]	Ratio (KDR/RET) (KDR kinase)	Tumor volume (Mean ± SD) Day 0 ([1]; 10 mg/kg oral twice a day) [mm^3]	TGI (%) Day 14 ([1]; 10 mg/kg oral twice a day) [%]	Tumor volume (Mean ± SD) Day 14 ([1]; 10 mg/kg oral twice a day) [mm^3]	IC50 [2] [nM]	Tumor volume (Mean ± SD) Day 0 ([1]; 30 mg/kg oral twice a day) [mm^3]	TGI (%) Day 14 ([1]; 30 mg/kg oral twice a day) [%]	Tumor volume (Mean ± SD) Day 14 ([1]; 30 mg/kg oral twice a day) [mm^3]
C#C[C@@](C)(O)COc1cc(-c2ccc(N3CC4CC(C3)N4Cc3ccc(OC)nc3)nc2)c2c(C#N)cnn2c1 [Embodiment 63, 6-(((R)-2-hydroxy-2-methylbut-3-yn-1-yl)oxy)-4-(6-(6-((6-methoxypyridin-3-yl)methyl)-3,6-diazabicyclo[3.1.1]heptan-3-yl)pyridin-3-yl)pyrazolo[1,5-a]pyridine-3-carbonitrile]	11.1	21.7	63	126.13 ± 17.24	94.66	219.86 ± 64.31	14.1	–	–	–
COc1ccc(CN2C3CC2CN(c2ccc(-c4cc(N5CC(C)(C#N)C5)cn5ncc(C#N)c45)cn2)C3)cn1 [Embodiment 77, 6-(3-Cyano-3-methylazetidin-1-yl)-4-(6-(6-((6-methoxypyridin-3-yl)methyl)-3,6-diazabicyclo[3.1.1]heptan-3-yl)pyridin-3-yl)pyrazolo[1,5-a]pyridine-3-carbonitrile]	4.79	6.9	19	101.59 ± 36.86	159.80	40.84 ± 53.92	4.1	–	–	–
COc1ncc(CN2C3CC2CN(c2ccc(-c4cc(C#CC(C)(C)O)cn5ncc(C#N)c45)cn2)C3)cc1F [Embodiment 18, 4-(6-(6-((5-Fluoro-6-methoxypyridin-3-yl)methyl)-3,6-diazabicyclo[3.1.1]heptan-3-yl)pyridin-3-yl)-6-(3-hydroxy-3-methylbut-1-yn-1-yl)pyrazolo[1,5-a]pyridine-3-carbonitrile]	22.6	23	73	–	–	–	19	132.34 ± 19.40	110.35	118.64 ± 84.34
C#C[C@](C)(O)COc1cc(-c2ccc(N3CC4CC(C3)N4Cc3ccc(OC)nc3)nc2)c2c(C#N)cnn2c1 [Embodiment 64, 6-(((S)-2-hydroxy-2-methylbut-3-yn-1-yl)oxy)-4-(6-(6-((6-methoxypyridin-3-yl)methyl)-3,6-diazabicyclo[3.1.1]heptan-3-yl)pyridin-3-yl)pyrazolo[1,5-a]pyridine-3-carbonitrile]	22.6	44.3	118	126.93 ± 16.98	88.39	330.85 ± 147.00	27.8	–	–	–

From patent US20230406865A1, “CRYSTAL FORM OF FREE BASE OF INHIBITOR CONTAINING BICYCLIC RING DERIVATIVE AND PREPARATION METHOD AND APPLICATION OF CRYSTAL FORM” (SHANGHAI HANSOH BIOMEDICAL CO., LTD., priority 2020, published 2023)
